# According to patent publication US20210085749A1, “Therapeutic and Neuroprotective Peptides” (Allegro Pharmaceuticals, LLC, priority 2017, published 2021):
# “And” between values parts separate entries of the source, which are not always exact repeats. Identical values can stand only once. “Also recorded” adds a separate entry of the source. Square brackets hold non-standard residues; d marks the D form. Peptide text beside a SMILES is read from it. Cya = N[CH](CS(=O)(=O)O)C(=O)O
# What was measured:
# ARPE-19 cells = test: In vitro protection of RPE cells against hydrogen peroxide, Trypan blue exclusion cell count; type: cell-based; settings: 8 hours post exposure
# Description: Hydrogen peroxide (H2O2), a physiological mediator of oxidative stress, is known to induce apoptosis in retinal pigment epithelial (RPE) cells.
# ARPE-19 cells were incubated in DMEM/F12 medium supplemented with 10% fetal bovine serum (FBS) and 50 μg/ml streptomycin and 50 μg/ml of penicillin at 37° C. in an atmosphere of 5% CO2.To induce differentiation, ARP-19 cells were cultured in a Laminin coated transwells for 2 weeks in the same medium supplemented with 1% FBS and antibiotics. The RPE cells were then isolated and aliquots of about 150 μl-200 μl of cell suspension were dispensed into the petri dishes containing control medium. The cells were then incubated at 37 degrees C. for 24 hours before use.
# Thereafter, the following four (4) separate neuronal cell dishes were prepared as shown below: • A) Control Retinal RPE cells; • B) Retinal RPE cells incubated with 1.0 mg/ml ALG-1001 (Luminate); • C) Retinal RPE cells incubated with 100 μM of Hydrogen Peroxide; and • D) Retinal RPE cells incubated with 1.0 mg/ml ALG-1001 (Luminate) for 24 hours before exposure to 100 μM of Hydrogen Peroxide.
# (§1) Eight (8) hours post exposure, the cell numbers were measured using Trypan blue exclusion assay in a Neubaur Chamber.
# Retinal Neuronal cells = test: In vitro protection of retinal neuronal cells against Kainic acid, Trypan blue exclusion cell count; type: cell-based, CD1 mice; settings: 8 hours post exposure
# Description: CD1 mice were euthanized by decapitation, eyes were rapidly enucleated into DMEM complement with antibiotic solution and the retina were isolated from the pigment epithelium.
# The isolated retina was incubated in Hank's medium containing 2.5 mg/ml papain and 0.1 mg/ml of cysteine for 15 minutes at 30° C. After rinsing the Hank's medium, supplemented with 1.9 mM of CaCl2), 0.6 mM of MgCl2 and 0.1 mg/ml of bovine serum albumin.
# The retina was mechanically dissociated, about 150 μl-200 μl of cell suspension was dispensed into the petri dish containing control medium. Bipolar cells were identified under a microscope by the cells morphology. The cells were incubated for 6 hours before use.
# Four (4) separate Neuronal cell dishes were prepared, as follows: A) Control Retinal Neuronal cells, B) Retinal Neuronal cells incubated with ALG-1001 (Luminate) 1.0 mg/ml, C) Retinal Neuronal cells incubated with […], D) Retinal Neuronal cells incubated with Luminate 1.0 mg/ml for 24 hours before exposure to 500 μM of Kainic acid.
# as §1
# Wister rat retina = test: In vivo dose-related neurotoxic effects of intravitreal Kainic acid, retinal histopathology; design: species or system Wister rats; settings: intravitreal 20 μl of 0.5, 5.0, 50.0 mM; 24 hours post treatment
# Description: The right eyes of 4 Wister rats were injected intravitreally with 20 μl of the four different solutions, as follows: A) BSS solution as control, B) 0.5 mM of Kainic acid, C) 5.0 mM of Kainic acid and D) 50.0 mM of Kainic acid.
# The rats were sacrificed 24 hours post treatment and the eyes were prepared for Histopathology examination.
# [1] = Human prospective open label study in Dry AMD, Best Corrected Visual Acuity; type: in vivo; settings: individual Dry AMD patient; single intravitreal injection 1.0 mg/50 μL
# Description: To determine if a single Luminate intravitreal injection of 1.0 mg/50 μL has any effect on improving Best Corrected Visual Acuity (BCVA) of Dry AMD subjects with moderate to moderately sever Dry AMD. This is a prospective interventional, open label, IRB approved human clinical proof of concept study conducted in 7 human subjects with moderate to moderately severe Dry AMD. Main inclusion criteria involved patients with Dry Macular Degeneration eyes with relatively intact photoreceptor and RPE layers in the central 1 mm of the macula by OCT. The baseline BCVA of the subjects was between 20/30 and 20/400 with no evidence of sub-retinal fluid or CNV and no history of Anti-VEGF treatment. All recruited patients underwent a baseline single intravitreal injection of Luminate 1.0 mg/50 μL and were monitored monthly, in addition central macular thickness, OCT, digital color photographs and pre and post treatment BCVA were obtained.
# retinal Muller cells = test: In vitro protection of retinal Muller cells against Kainic acid, Trypan blue exclusion cell count; type: cell-based, CD1 mice; settings: 1.0 mg/ml for 24 hours before exposure to 500 μM Kainic acid (Plate D), 48 hours post exposure
# Description: CD1 mice were euthanized by decapitation, eyes were rapidly enucleated into DMEM complement with antibiotic solution and stored overnight at room temperature. Subsequently the intact globes were incubated in DMEM containing 0.1% trypsin and 70 U/ml collagenase at 37° C. for 60 minutes.
# The incubated materials were placed in a petri dish containing DMEM supplemented with 10% fetal bovine serum, and the retinas were removed without the RPE cells into small aggregates and seeded into 35 mm culture dishes. Medium was unchanged for 6 days and then replenished every 3-4 days. The cultures were maintained at 37° C. in a […]/95% O2 in a humidified incubator.
# When the cell outgrowth had attained semiconfluency, (80%) retinal aggregates were removed by pipetting the medium into the dish. This operation was repeated three (3) times until a purified flat cell population was obtained. After 24 hours, the cells were exposed to the experimental conditions.
# Four (4) separate Muller cell dishes were prepared, as follows: A) Control Muller cells; B) Muller cells incubated with ALG-1001 (Luminate) 1.0 mg/ml; C) Muller cells incubated with 500 μM of Kainic acid and D) Muller cells incubated with Luminate 1.0 mg/ml for 24 hours before exposure to 500 μM of Kainic acid. Forty Eight (48) hours post exposure, the cell numbers were measured using Trypan blue exclusion assay in a Neubaur Chamber.
# retinal ganglion cells = test: Ocular neuroprotection in vivo, rat model of elevated intraocular pressure (optic nerve ligation), ganglion cell counts; design: species or system Wister rats
# Description: Healthy Wister rats (n=8) ten (10) weeks of age were kept in a vivarium maintained at a constant temperature of 26° C., and a constant light-dark cycle (14 hours and 10 hours respectively) with food available ad libitum. The rats were randomly divided into a Luminate treatment group of five (5) animals (Group A) and a Basic Salt Solution (BSS-control) treatment group of three (3) animals (Group B).
# The animals of Group A each received a single intravitreal injection of 1.28 mg/20 μL of Luminate in the right eye. The animals of Group B each received a single intravitreal injection of 20 μL of balanced salt solution (BSS). The left eyes of all animals in Groups A and B were not injected and were used as untreated controls. The intravitreal injections were administered 2 mm posterior to the limbus in the supronasal quadrant using a 30-gauge needle attached to a 1.0 cc syringe. Care was taken to avoid damage to the lens or retina.
# Twenty-four (24) hours after administration of the injections the rats were anesthetized by intraperitoneal injection of 3.0 mL/kg of a mixture of ketamine Hydrochloride (2.5 mg/mL), diazepam (2.0 mg/mL) and atropine (0.1 mg/mL). The eyes were then subjected to peritoneal conjunctival detachment of the lateral rectus muscle to expose the optic nerve. The optic nerve was then ligated with silk suture for a period of 60 minutes during which the absence of blood flow in the retina of each ligated eye was verified by inspection using a Plano contact lens. The ligatures were removed after 60 minutes, and restoration of blood flow to the retina was verified in each previously-ligated eye using the Plano contact lens.
# The eyes were then enucleated and fixed for histopathological analysis. Specimens of the retina and optic nerve from each eye were dehydrated and embedded in paraffin. Horizontal sections 4 microns thick were cut and stained with hematoxylin and eosin. Under light microscopy, ganglion cell counts were counted in axial sections of the retina of each eye from ora serrata through the optic nerve. Also, in each section, the number of ganglion cells per millimeter through the total length of the retina was calculated digitally, using a measuring slide calibrated for this purpose.
# Measurement of the inner plexiform layer was performed by observing the slides at a magnification of 40× no more than 1 mm from the optic nerve.
# The results were subjected to statistical analysis. The results for each group were expressed as mean±standard deviation and the statistical significance between the results of the groups was evaluated by 2 way ANOVA as well as the Mann-Whitney U test. Probabilities of <0.05 were deemed to be significant.
structure (smiles),measurement,setting,value
"OO [Hydrogen Peroxide, Hydrogen peroxide, reference compound]","RPE cell count, % of the control cell count",ARPE-19 cells; 100 μM Hydrogen Peroxide alone (Plate C),78%
"C=C(C)[C@H]1CN[C@H](C(=O)O)[C@H]1CC(=O)O [Kainic acid, reference compound]","neuronal cell count, % compared to Control",Retinal Neuronal cells; 100 μM Kainic acid only (Plate C),58%
same,retinal degeneration by histopathology,Wister rat retina,dose-related retinal neurotoxisity
"CC(O)C(NC(=O)C(CS(=O)(=O)O)NC(=O)CNC(=O)C(CCCNC(=N)N)NC(=O)CN)C(=O)N1CCCC1C(=O)O (centres unmarked) [Luminate, Glycinyl-Arginyl-Glycinyl-Cysteic-Threonyl-Proline] (H-GRG[Cya]TP-OH; configuration not given here)",BCVA 3 Months Post Treatment,[1],1.0 log Mar (2×) and 1.3 log Mar and 0.20 log Mar and 0.3 log Mar and 0.6 log Mar
same,BCVA 3 Months Post Treatment (Snellen),[1],20/200 (2×) and 20/400 and 20/32 and 20/40 and 20/80
same,BCVA letters gained 3 Months Post Treatment vs baseline,[1],up to 20 letters; also recorded: Gained 15 letters; also recorded: Gained no letters; also recorded: Gained 10 letters; also recorded: Gained 20 letters
same,"RPE cell count, % of the control cell count",ARPE-19 cells; 1.0 mg/ml for 24 hours before exposure to 100 μM Hydrogen Peroxide (Plate D),90%
same,Muller cell count compared with other plates,retinal Muller cells,higher Muller cell count than any of the other plates
same,"neuronal cell count, % of Control",Retinal Neuronal cells; 1.0 mg/ml for 24 hours before exposure to 500 μM Kainic acid (Plate D),80%
same,Difference between medians: Actual (CONTROLS vs. CASES),"retinal ganglion cells; ganglion cells per field, BSS controls minus treated",−9.000
same,Difference between medians: Hodges-Lehmann (CONTROLS vs. CASES),"retinal ganglion cells; ganglion cells per field, 95.05% CI −13.00 to −6.000",−10.00
same,neuroprotective effect in rat model of elevated IOP,"retinal ganglion cells; intravitreal administration, p<0.0001 vs BSS (ANOVA, Mann-Whitney)",significant neuroprotective effects
same,"Median of column A (ganglion cells per field, CASES)","retinal ganglion cells; n = 54 fields, Mann-Whitney vs BSS controls P<0.0001","18.00, n = 54"
same,SUM of ganglion cells over all fields,"retinal ganglion cells; per treated eye (case), intravitreal 1.28 mg/20 μL 24 h before 60 min optic nerve ligation",234 and 165 and 259 and 218 and 175
